Legend:
[1] = tested on: C. auris AR Bank # 0385 (strain IV); assay: MIC determination (broth microdilution); format: cell-based, Candida auris; conditions: strain IV = C. auris AR Bank # 0385; MIC-0; 48 h (CAS read at 24 h)
[2] = tested on: C. albicans ATCC MYA-1003(R) (strain A); format: cell-based, Candida albicans; conditions: strain A = C. albicans ATCC MYA-1003(R); MIC-0; 48 h at 35° C.
[3] = tested on: A. nidulans ATCC 38163 (strain Q); assay: MIC determination (broth microdilution); format: cell-based, Aspergillus nidulans; conditions: strain Q = A. nidulans ATCC 38163; MIC-0; 72 h at 35° C.
A549 = assay: Mammalian cytotoxicity assay (resazurin cell viability); format: cell-based; conditions: A549 (human lung carcinoma); read-out: IC50 for mammalian cell lines
Text: (§1) For cytotoxicity assays, the human embryonic kidney cell line (HEK-293) was purchased from the ATCC. The human bronchial epithelial cell line (BEAS-2B), the human lung carcinoma cell line (A549), and the mouse macrophage cell line (J774A.1) were generous gifts from Prof. David K. Orren (University of Kentucky, Lexington, Ky.), Prof. Markos Leggas (University of Kentucky, Lexington, Ky.), and Prof. David J. Feola (University of Kentucky, Lexington, Ky.), respectively. A549, HEK-293, and BEAS-2B cells were cultured in Dulbecco's Modified Eagle's Medium (DMEM, catalog #VWRL0100, VWR, Chicago, Ill.) supplemented with 10% fetal bovine serum (FBS; from ATCC) and 1% penicillin/streptomycin (from ATCC) at 37° C. with 5% CO2. The J774A.1 cells were cultured in DMEM (catalog #30-2002, ATCC, Manassas, Va.), which was also supplemented with FBS and antibiotics and grown at 37° C. with 5% CO2.
(§2) To examine whether the compounds are safe for human cells, cytotoxicity assays were done against four mammalian cell lines: HEK-293, A549, BEAS-2B, and J774A.1 cells. […] HEK-293 and J774A.1 cells were plated at 1×10^4 cells/mL while A549 and BEAS-2B were plated at 3×10^3 cells/mL. Compounds were tested in concentrations ranging from 0.06 to 15.6 μg/mL with final concentration of DMSO at 0.5% (FIG. 4A-D).

BEAS-2B = assay: as above; format: cell-based; conditions: BEAS-2B (human bronchial epithelial); read-out: IC50 for mammalian cell lines
Text: as §1, §2

J774A.1 = assay: as above; format: cell-based; conditions: J774A.1 (murine macrophage); read-out: IC50 for mammalian cell lines
Text: as §1, §2

HEK-293 = assay: as above; format: cell-based; conditions: HEK-293 (human embryonic kidney); read-out: IC50 for mammalian cell lines
Text: as §1, §2

[4] = tested on: C. neoformans CN3 (strain P); assay: MIC determination (broth microdilution); format: cell-based, Cryptococcus neoformans; conditions: MIC-0, 72 h at 35° C.
[5] = tested on: C. neoformans CN1 (strain N); assay: MIC determination (broth microdilution); format: cell-based, Cryptococcus neoformans; conditions: MIC-0, 72 h at 35° C.
[6] = tested on: C. glabrata ATCC 2001 (strain H); assay: MIC determination (broth microdilution); format: cell-based, Candida glabrata; conditions: strain H = C. glabrata ATCC 2001; MIC-0; 48 h at 35° C.
[7] = tested on: C. albicans ATCC 10231 (strain B) biofilm; assay: Prevention of biofilm formation (XTT); format: cell-based, Candida albicans; conditions: treated at 0 h, 90% decrease in metabolic activity (XTT)
[8] = tested on: C. auris AR Bank # 0390 (strain L); assay: MIC determination (broth microdilution); format: cell-based, Candida auris; conditions: strain L = C. auris AR Bank # 0390; MIC-0; 48 h (CAS read at 24 h); Table 1 row printed without letter, below L; also in Table 2
[9] = tested on: C. auris AR Bank # 0383 (strain III); assay: MIC determination (broth microdilution); format: cell-based, Candida auris; conditions: strain III = C. auris AR Bank # 0383; MIC-0; 48 h (CAS read at 24 h)
[10] = tested on: C. auris AR Bank # 0388 (strain VII); assay: MIC determination (broth microdilution); format: cell-based, Candida auris; conditions: strain VII = C. auris AR Bank # 0388; MIC-0; 48 h (CAS read at 24 h)
[11] = tested on: C. auris AR Bank # 0390 (strain L) pre-formed biofilm; format: cell-based, Candida auris; conditions: biofilm treated at 24 h, XTT
[12] = tested on: C. albicans ATCC 10231 (strain B) pre-formed biofilm; assay: Disruption of pre-formed biofilm (XTT); format: cell-based, Candida albicans; conditions: for Pre-formed biofilm SMIC90: biofilm treated at 24 h, XTT
[13] = tested on: C. albicans ATCC MYA-2310(S) (strain D); assay: MIC determination (broth microdilution); format: cell-based, Candida albicans; conditions: strain D = C. albicans ATCC MYA-2310(S); MIC-0; 48 h; listed as printed beside letter E
[14] = tested on: C. albicans ATCC MYA-2876(S) (strain E); assay: MIC determination (broth microdilution); format: cell-based, Candida albicans; conditions: strain E = C. albicans ATCC MYA-2876(S); MIC-0; 48 h; listed as printed beside letter F
[15] = tested on: C. albicans ATCC 10231(R) (strain B); format: cell-based, Candida albicans
[16] = tested on: A. flavus ATCC MYA-3631 (strain S); assay: MIC determination (broth microdilution); format: cell-based, Aspergillus flavus; conditions: strain S = A. flavus ATCC MYA-3631; MIC-0; 72 h at 35° C.
[17] = tested on: C. albicans ATCC MYA-1237(R) (strain C); format: cell-based, Candida albicans; conditions: strain C = C. albicans ATCC MYA-1237(R); MIC-0; 48 h; listed as printed beside letter D

Substance	MIC [1]	MIC (in parentheses) [1]	MIC [2]	MIC (in parentheses) [2]	MIC [3]	MIC (in parentheses) [3]	IC50 (A549)	IC50 (BEAS-2B)	IC50 (J774A.1)	IC50 (HEK-293)	MIC [4]	MIC (in parentheses) [4]	MIC [5]	MIC (in parentheses) [5]	MIC [6]	MIC (in parentheses) [6]	Biofilm prevention SMIC90 [7]	MIC [8]	MIC (in parentheses) [8]	MIC [9]	also measured
bis-[1,2-bis[(2R,5R)-2,5-dimethylfphospholano]benzene]gold(1) [Compound 6]	1.95 µg/mL	2.3 µM	0.49 µg/mL	0.6 µM	3.9 µg/mL	4.6 µM	2500 ± 200 nM	4900 ± 300 nM	1500 ± 100 nM	5700 ± 500 nM	0.49 µg/mL	0.6 µM	0.49 µg/mL	0.6 µM	0.98 µg/mL	0.6 µM	0.98 µg/mL	1.95 µg/mL	2.3 µM	3.9 µg/mL	MIC (in parentheses) [9]: 4.6 µM; MIC [10]: 1.95 µg/mL; MIC (in parentheses) [10]: 2.3 µM; Pre-formed biofilm SMIC90 [11]: 7.8 µg/mL; SMIC90 of pre-formed biofilm relative to MIC with planktonic cells [12]: 4 fold; Pre-formed biofilm SMIC90 [12]: 3.9 µg/mL; MIC [13]: 0.49 µg/mL; MIC (in parentheses) [13]: 0.6 µM; MIC [14]: 0.49 µg/mL; MIC (in parentheses) [14]: 0.6 µM; MIC [15]: 0.98 (1.2) μg/mL; MIC (in parentheses) [15]: 0.98 (1.2) μM; MIC [16]: 7.8 µg/mL; MIC (in parentheses) [16]: 9.2 µM; MIC [17]: 0.98 µg/mL; MIC (in parentheses) [17]: 1.2 µM
bis-[1,2-bis[(2S,5S)-2,5-dimethylphospholano]benzene]gold(I) [Compound 4]	1.95 µg/mL	2.3 µM	0.98 µg/mL	1.2 µM	3.9 µg/mL	4.6 µM	4500 nM	2000 ± 300 nM	1500 ± 100 nM	1900 ± 700 nM	0.98 µg/mL	1.2 µM	0.98 µg/mL	1.2 µM	1.95 µg/mL	2.3 µM	3.9 µg/mL	7.8 µg/mL	9.2 µM	1.95 µg/mL	MIC (in parentheses) [9]: 2.3 µM; MIC [10]: 1.95 µg/mL; MIC (in parentheses) [10]: 2.3 µM; Pre-formed biofilm SMIC90 [11]: 15.6 µg/mL; SMIC90 of pre-formed biofilm relative to MIC with planktonic cells [12]: 4 fold; Pre-formed biofilm SMIC90 [12]: 7.8 µg/mL; MIC [13]: 0.98 µg/mL; MIC (in parentheses) [13]: 1.2 µM; MIC [14]: 0.98 µg/mL; MIC (in parentheses) [14]: 1.2 µM; MIC [15]: 1.95 (2.3) μg/mL; MIC (in parentheses) [15]: 1.95 (2.3) μM; MIC [16]: 7.8 µg/mL; MIC (in parentheses) [16]: 9.2 µM; MIC [17]: 0.98 µg/mL; MIC (in parentheses) [17]: 1.2 µM

From patent US11564394B2, “Distorted gold (I)-phosphine complexes and methods for use as antifungal agents” (University of Kentucky Research Foundation, priority 2019, dated 2023)
